In this experiment the target is T1, Dopamine beta hydroxylase (Homo sapiens, UniProt P09172).
T1 construct: 125 μl of plasma; tissue Instituto Português do Sangue Transplantação; host or cells: human plasma from healthy donors
T1 sequence (P09172 40-617 limits assumed): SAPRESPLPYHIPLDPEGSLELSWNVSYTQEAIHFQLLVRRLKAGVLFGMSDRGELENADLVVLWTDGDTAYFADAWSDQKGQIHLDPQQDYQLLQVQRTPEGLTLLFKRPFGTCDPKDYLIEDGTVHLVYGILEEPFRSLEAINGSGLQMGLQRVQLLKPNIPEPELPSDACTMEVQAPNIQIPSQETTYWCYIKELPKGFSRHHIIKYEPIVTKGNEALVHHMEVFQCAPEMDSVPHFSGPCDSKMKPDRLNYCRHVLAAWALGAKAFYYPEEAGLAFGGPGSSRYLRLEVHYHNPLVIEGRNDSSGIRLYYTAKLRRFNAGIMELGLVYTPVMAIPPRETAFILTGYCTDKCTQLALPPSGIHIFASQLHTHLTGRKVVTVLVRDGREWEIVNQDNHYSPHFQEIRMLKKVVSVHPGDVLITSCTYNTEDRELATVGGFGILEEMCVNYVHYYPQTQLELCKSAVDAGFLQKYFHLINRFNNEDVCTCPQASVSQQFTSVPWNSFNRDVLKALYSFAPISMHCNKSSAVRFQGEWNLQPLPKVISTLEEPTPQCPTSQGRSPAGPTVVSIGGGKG
Nature of the experiment: Dopamine beta hydroxylase activity in human plasma. Format: biochemical. As to conditions: for Plasma (1 μM), activity in % of control: inhibitor 1 μM. In a few lines: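 Healthy-donor human plasma pre-incubated 10 min at 37° C with compound at final 10, 100 or 1000 nM in pH 5.0 acetate buffer with ascorbate, fumarate, pargyline, N-ethylmaleimide, catalase and copper sulfate. Tyramine substrate then added for 45 min; octopamine formed was isolated by SCX cartridge, periodate-converted and read at 330 nm; activity given as % control.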

Marks after values point to notes of the source that are not given here.

Turning to `CN(C(=O)Cc1c2n(c(=S)n1C)C[C@@]1(c3c(F)ccc(Cl)c3F)C[C@@H]21)C1CCOC1` (stereo partly drawn) [Example 442, 2-((5aS,6aR)-5a-(3-chloro-2,6-difluorophenyl)-2-methyl-3-thioxo-2,3,5,5a,6,6a-hexahydrocyclopropa[3,4]pyrrolo[1,2-c]imidazol-1-yl)-N-methyl-N-(tetrahydrofuran-3-yl)acetamide], the “Plasma (0.01 μM), activity in % of control” value (inhibitor 0.01 μM) is 43.6 % of control. Moreover, the “Plasma (0.1 μM), activity in % of control” value (inhibitor 0.1 μM) is 10.0 % of control.

As for `Cn1c(CCC(=O)Nc2ccccn2)c2n(c1=S)C[C@H](c1c(F)ccc(Cl)c1F)C2` [Example 268, (S)-3-(6-(3-chloro-2,6-difluorophenyl)-2-methyl-3-thioxo-2,5,6,7-tetrahydro-3H-pyrrolo[1,2-c]imidazol-1-yl)-N-(pyridin-2-yl)propanamide], the “Plasma (0.01 μM), activity in % of control” value (inhibitor 0.01 μM) is listed as 99.8 % of control. For the same molecule, the “Plasma (0.1 μM), activity in % of control” value (inhibitor 0.1 μM) is on record as 57.7 % of control.

Turning to `O=C(O)CCc1[nH]c(=S)n2c1C[C@H](c1c(F)c(F)cc(F)c1F)C2` [Example 202, (R)-3-(6-(2,3,5,6-tetrafluorophenyl)-3-thioxo-2,5,6,7-tetrahydro-3H-pyrrolo[1,2-c]imidazol-1-yl)propanoic Acid], under “inhibitor 0.01 μM”, the “Plasma (0.01 μM), activity in % of control” value is listed as 67.7 % of control. Further, the “Plasma (0.1 μM), activity in % of control” value (inhibitor 0.1 μM) is on record as 22.7 % of control.

Turning to `CN(C(=O)Cc1c2n(c(=S)n1C)C[C@H](c1c(F)ccc(Cl)c1F)C2)C1CCOC1` (stereo partly drawn) [Example 383, 2-((S)-6-(3-chloro-2,6-difluorophenyl)-2-methyl-3-thioxo-2,5,6,7-tetrahydro-3H-pyrrolo[1,2-c]imidazol-1-yl)-N-methyl-N-(tetrahydrofuran-3-yl)acetamide], for the setting “inhibitor 0.01 μM”, the “Plasma (0.01 μM), activity in % of control” value is listed as 65.6 % of control. For the same molecule, the “Plasma (0.1 μM), activity in % of control” value (inhibitor 0.1 μM) was 14.8 % of control.

Consider `O=C(Cc1[nH]c(=S)n2c1C[C@@H](c1c(F)ccc(Cl)c1F)C2)NCC(F)(F)F` [Example 113, (S)-2-(6-(3-chloro-2,6-difluorophenyl)-3-thioxo-2,5,6,7-tetrahydro-3H-pyrrolo[1,2-c]imidazol-1-yl)-N-(2,2,2-trifluoroethyl)acetamide], for which, where the note is “inhibitor 0.01 μM”, the “Plasma (0.01 μM), activity in % of control” value is given as 85.1 % of control. Further, for the setting “inhibitor 0.1 μM”, the “Plasma (0.1 μM), activity in % of control” value was 25.6 % of control.

Consider `CN(C(=O)Cc1c2n(c(=S)n1C)C[C@@]1(c3cc(Br)ccc3F)C[C@@H]21)C1CCOC1` (stereo partly drawn) [Example 440, 2-((5aS,6aR)-5a-(5-bromo-2-fluorophenyl)-2-methyl-3-thioxo-2,3,5,5a,6,6a-hexahydrocyclopropa[3,4]pyrrolo[1,2-c]imidazol-1-yl)-N-methyl-N-(tetrahydrofuran-3-yl)acetamide], for which the “Plasma (0.01 μM), activity in % of control” value (inhibitor 0.01 μM) is reported as 57.2 % of control. Besides, the “Plasma (0.1 μM), activity in % of control” value (inhibitor 0.1 μM) is recorded as 8.4 % of control.

With `CN(C(=O)Cc1c2n(c(=S)n1C)C[C@H](c1c(F)ccc(Br)c1F)C2)C1CCOCC1` [Example 405, (S)-2-(6-(3-bromo-2,6-difluorophenyl)-2-methyl-3-thioxo-2,5,6,7-tetrahydro-3H-pyrrolo[1,2-c]imidazol-1-yl)-N-methyl-N-(tetrahydro-2H-pyran-4-yl)acetamide], for the setting “inhibitor 0.01 μM”, the “Plasma (0.01 μM), activity in % of control” value is 50.7 % of control. Also, the “Plasma (0.1 μM), activity in % of control” value (inhibitor 0.1 μM) is listed as 4.5 % of control.

Turning to `O=C(Cc1[nH]c(=S)n2c1[C@@H]1C[C@]1(c1cc(Br)ccc1F)C2)NCC1CC1` [Example 143, 2-((5aS,6aR)-5a-(5-bromo-2-fluorophenyl)-3-thioxo-2,3,5,5a,6,6a-hexahydrocyclopropa[3,4]pyrrolo[1,2-c]imidazol-1-yl)-N-(cyclopropylmethyl)acetamide], the “Plasma (1 μM), activity in % of control” value is 0.2 % of control. In addition, where the note is “inhibitor 0.1 μM”, the “Plasma (0.1 μM), activity in % of control” value is on record as 20.1 % of control.

Turning to `O=C(Cc1[nH]c(=S)n2c1C[C@@H](c1c(F)ccc(Br)c1F)C2)NC1CC1` [Example 94, (S)-2-(6-(3-bromo-2,6-difluorophenyl)-3-thioxo-2,5,6,7-tetrahydro-3H-pyrrolo[1,2-c]imidazol-1-yl)-N-cyclopropylacetamide], the “Plasma (1 μM), activity in % of control” value is recorded as 0.8 % of control. Besides, the “Plasma (0.1 μM), activity in % of control” value (inhibitor 0.1 μM) is on record as 47.5 % of control.

For the molecule `CCOC(=O)Cc1[nH]c(=S)n2c1C[C@H](c1cc(Cl)ccc1F)C2` [Example 64, Ethyl (R)-2-(6-(5-chloro-2-fluorophenyl)-3-thioxo-2,5,6,7-tetrahydro-3H-pyrrolo[1,2-c]imidazol-1-yl)acetate], the “Plasma (1 μM), activity in % of control” value was 47.2 % of control. In addition, the “Plasma (0.1 μM), activity in % of control” value (inhibitor 0.1 μM) is reported as 88.4 % of control.

Regarding `Cl.Cn1c(CC(=O)NCc2ccccn2)c2n(c1=S)C[C@@]1(c3cc(Cl)ccc3F)C[C@@H]21` [Example 332, 2-((5aS,6aR)-5a-(5-chloro-2-fluorophenyl)-2-methyl-3-thioxo-2,3,5,5a,6,6a-hexahydrocyclopropa[3,4]pyrrolo[1,2-c]imidazol-1-yl)-N-(pyridin-2-ylmethyl)acetamide Hydrochloride], the “Plasma (0.01 μM), activity in % of control” value (inhibitor 0.01 μM) is given as 32.8 % of control. For the same molecule, under “inhibitor 0.1 μM”, the “Plasma (0.1 μM), activity in % of control” value is given as 2.7 % of control.

With `O=C(Cc1[nH]c(=S)n2c1C[C@@H](c1c(F)c(F)cc(F)c1F)C2)N1CCCC1` [Example 105, (S)-1-(pyrrolidin-1-yl)-2-(6-(2,3,5,6-tetrafluorophenyl)-3-thioxo-2,5,6,7-tetrahydro-3H-pyrrolo[1,2-c]imidazol-1-yl)ethan-1-one], the “Plasma (1 μM), activity in % of control” value is 22.0 % of control. In addition, the “Plasma (0.1 μM), activity in % of control” value (inhibitor 0.1 μM) was 74.9 % of control.

For `O=C(Cc1[nH]c(=S)n2c1C[C@@H](c1c(F)ccc(Cl)c1F)C2)N[C@H]1CCOC1` [Example 404, 2-((S)-6-(3-chloro-2,6-difluorophenyl)-3-thioxo-2,5,6,7-tetrahydro-3H-pyrrolo[1,2-c]imidazol-1-yl)-N—((S)-tetrahydrofuran-3-yl)acetamide], the “Plasma (0.01 μM), activity in % of control” value (inhibitor 0.01 μM) was 78.7 % of control. For the setting “inhibitor 0.1 μM”, the “Plasma (0.1 μM), activity in % of control” value is listed as 26.2 % of control.

For `Cn1c(CC(=O)Nc2ncco2)c2n(c1=S)C[C@@H](c1c(F)c(F)cc(F)c1F)C2` [Example 316, (R)-2-(2-methyl-3-thioxo-6-(2,3,5,6-tetrafluorophenyl)-2,5,6,7-tetrahydro-3H-pyrrolo[1,2-c]imidazol-1-yl)-N-(oxazol-2-yl)acetamide], the “Plasma (0.01 μM), activity in % of control” value (inhibitor 0.01 μM) is 43.4 % of control. Further, the “Plasma (0.01 μM), activity in % of control, re-test (asterisked)” value (inhibitor 0.01 μM, re-tested under the same experimental conditions, asterisked data believed to be correct) is listed as 73.1* % of control. In addition, where the note is “inhibitor 0.1 μM”, the “Plasma (0.1 μM), activity in % of control” value is 4.5 % of control. Where the note is “inhibitor 0.1 μM, re-tested under the same experimental conditions, asterisked data believed to be correct”, the “Plasma (0.1 μM), activity in % of control, re-test (asterisked)” value was 16.6* % of control.

Turning to `CN(C(=O)Cc1c2n(c(=S)n1C)C[C@H](c1c(F)ccc(F)c1F)C2)C1COC1` [Example 435, (S)—N-methyl-2-(2-methyl-3-thioxo-6-(2,3,6-trifluorophenyl)-2,5,6,7-tetrahydro-3H-pyrrolo[1,2-c]imidazol-1-yl)-N-(oxetan-3-yl)acetamide], the “Plasma (0.01 μM), activity in % of control” value (inhibitor 0.01 μM) is recorded as 66.5 % of control. For the setting “inhibitor 0.1 μM”, the “Plasma (0.1 μM), activity in % of control” value is 36.6 % of control.
